One series addresses T1, hOATP1B3 (Homo sapiens, UniProt Q9NPD5).
T1 sequence (Q9NPD5 1-702): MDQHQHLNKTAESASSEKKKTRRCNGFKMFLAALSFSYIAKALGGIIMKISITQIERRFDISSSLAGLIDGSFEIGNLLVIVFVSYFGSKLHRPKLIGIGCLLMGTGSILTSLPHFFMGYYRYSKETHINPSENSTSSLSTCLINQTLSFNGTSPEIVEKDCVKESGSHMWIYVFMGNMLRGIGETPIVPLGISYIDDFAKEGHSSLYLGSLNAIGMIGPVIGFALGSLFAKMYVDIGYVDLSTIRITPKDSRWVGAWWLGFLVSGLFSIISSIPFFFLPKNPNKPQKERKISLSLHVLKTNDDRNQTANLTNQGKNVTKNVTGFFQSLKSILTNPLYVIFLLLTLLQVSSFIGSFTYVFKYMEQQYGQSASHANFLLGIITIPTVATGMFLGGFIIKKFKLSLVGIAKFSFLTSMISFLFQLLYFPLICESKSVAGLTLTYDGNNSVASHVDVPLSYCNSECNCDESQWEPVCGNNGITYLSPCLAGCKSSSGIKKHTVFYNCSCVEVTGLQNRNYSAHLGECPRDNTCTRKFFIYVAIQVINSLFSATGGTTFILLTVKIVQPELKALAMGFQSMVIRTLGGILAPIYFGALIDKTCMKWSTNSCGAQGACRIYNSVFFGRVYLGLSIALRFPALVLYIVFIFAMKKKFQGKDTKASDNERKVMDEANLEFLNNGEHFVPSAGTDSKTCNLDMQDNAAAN
Kind of series: Uptake of aconitum alkaloids in hOATP1B3-transfected HEK293 cells vs mock. Format: in vitro ADME. The note with it: 10 μm, 2 min.

Another series concerns OCT2. As to conditions: read-out: Ki, competitive inhibition of OCT2; TEA probe substrate; cited from earlier work.
The target in another series is T2, hOCT1 (Homo sapiens, UniProt O15245).
T2 sequence (O15245 1-554): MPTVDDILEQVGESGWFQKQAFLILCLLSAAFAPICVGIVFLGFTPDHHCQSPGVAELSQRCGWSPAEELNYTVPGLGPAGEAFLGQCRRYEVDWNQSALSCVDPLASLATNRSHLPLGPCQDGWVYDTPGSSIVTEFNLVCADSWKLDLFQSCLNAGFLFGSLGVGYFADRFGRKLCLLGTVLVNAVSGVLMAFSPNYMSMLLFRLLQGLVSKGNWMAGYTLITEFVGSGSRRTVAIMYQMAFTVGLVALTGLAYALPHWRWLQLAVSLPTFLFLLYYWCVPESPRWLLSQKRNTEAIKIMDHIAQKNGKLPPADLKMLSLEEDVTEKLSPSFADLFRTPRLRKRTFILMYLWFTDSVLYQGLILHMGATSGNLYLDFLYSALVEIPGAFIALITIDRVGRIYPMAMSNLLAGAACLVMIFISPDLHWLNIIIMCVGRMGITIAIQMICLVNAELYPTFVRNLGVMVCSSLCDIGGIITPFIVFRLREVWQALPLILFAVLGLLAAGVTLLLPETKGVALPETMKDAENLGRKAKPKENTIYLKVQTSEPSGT
Kind of series: Uptake of aconitum alkaloids in hOCT1-transfected cells vs mock. The series is classed as in vitro ADME. The note with it: 10 μm, 5 min.

Series [1] is classed as in vivo, Sprague-Dawley (SD) rats. As to conditions: aconitine 0.5 mg kg^−1 oral; pretreatment 15 min before; n = 6.
Series [2] is classed as in vivo, Sprague-Dawley (SD) rats. As to conditions: aconitine 0.5 mg kg^−1 oral; pretreatment 15 min before; n = 6. This is another data set of the same source.

This is an account of results in article PMC9064382 (RSC Advances, 2019).

The term Ki denotes a dissociation constant, usually derived from enzyme kinetics or from competition with a known ligand.

As to `CCN1C[C@]2(COC)[C@H](O)C[C@H](OC)[C@@]34[C@@H]5C[C@@]6(O)[C@H](OC(=O)c7ccccc7)[C@@H]5[C@@](OC(C)=O)([C@@H]([C@H](OC)[C@H]23)[C@@H]14)[C@@H](O)[C@@H]6OC` [aconitine], the “uptake in hOATP1B3-transfected cells, adjusted by protein concentration” value at hOATP1B3 (HEK293-hOATP1B3) came to 344 pmol mg^−1 protein. In addition, the “concentration in hOATP1B3-transfected cells, fold of HEK293 mock cells” value at hOATP1B3 (HEK293-hOATP1B3 vs mock) is listed as 1.35 fold. For the same molecule, the Ki with OCT2 is 145 µM. Moreover, the “concentration in HEK293–hOCT1, fold higher than control” value on hOCT1 is “roughly 1.9 fold”. Besides, in series [1], the “AUC(0–2 h) of aconitine in rat liver” value stood at 100.3 ± 8.9 ng/h/g. Further, in series [2], the “AUC(0–2 h) of aconitine in rat kidneys” value came out at 60.5 ± 6.8 ng/h/g.
